# Measurements published in patent US8865894B2, “Oxazolidin-2-one compounds and uses thereof” (Novartis AG, priority 2012, dated 2014).
# pIC50: −log10 of the molar value.
# Target: T1, human PI3Kdelta p110 catalytic subunit (Rat-1 pBABEpuro Myr-HA-hp110 delta) (Homo sapiens, UniProt O00329)
# T1 construct: Myr (myristoylation signal) (N); HA (N); expressed in transfected cells; host or cells: Rat-1
# Assay: Cellular assay PI3Kdelta (p-Akt(S473) SureFire, Rat-1_PI3Kdelta cells)
# Format: cell-based
# Conditions: 1 h compound treatment, read-out: Rat1-PI3Kd/ IC50
# From the text: AlphaScreen (Amplified Luminescent Proximity Homogeneous Assay, ALPHA, Perkin Elmer) is a non-radioactive bead-based proximity assay technology to study biomolecular interactions in a homogenous microtiter plate format. The brand name SureFire denotes AlphaScreen assays that are adapted to quantify the phosphorylation of endogenous cellular proteins in cell lysates, by using matched antibody pairs, which consist of an anti-phospho-kinase and an anti-kinase antibody. The assay allows characterization of kinase signaling in cells as well as measurement of kinase inhibitor effects. The AlphaScreen technology provides several advantages over standard assay techniques such as ELISA, as it avoids time-consuming washing procedures and reduces plate handling. Furthermore, it is miniaturizable at least to a 384-well format and provides sensitivity down to the femtomolar range, dependent on the affinity of the antibodies included in the individual AlphaScreen SureFire assay kit. High sensitivity is reached by an intrinsic amplification mechanism, which involves production of singlet oxygen molecules. SureFire assay kits are commercially available for specific targets and include pairs of validated antibodies (PerkinElmer). This report describes common procedures applied for AlphaScreen SureFire assays and respective semi-automated steps for routine kinase inhibitor profiling in cell-based assays.
# The Rat-1 cell lines stably overexpressing activated PI3K class I isoforms Rat-1 pBABEpuro Myr-HA-hp110 delta (Rat-1_PI3Kdelta) and Rat-1 pBABEpuro Myr-HA-hp110alpha (Rat-1_PI3Kalpha) and Rat-1 pBABEpuro Myr-HA-hp110 beta (Rat-1_PI3beta) were prepared as described (Maira S M, Stauffer F, Brueggen J, Furet P, Schnell C, Fritsch C, Brachmann S, Chène P, de Pover A, Schoemaker K, Fabbro D, Gabriel D, Simonen M, Murphy L, Finan P, Sellers W, García-Echeverría C (2008), Mol Cancer Ther. 7:1851-63 and Maira S M, Pecchi S, Brueggen J, Huh K, Schnell C, Fritsch C, Nagel T, Wiesmann M, Brachmann S, Dorsch M, Chène P, Schoemaker K, De Pover A, Menezes D, Fabbro D, Sellers W, García-Echeverría C, Voliva C F (2011), Mol. Cancer Ther., accepted). All cell lines were cultivated in complete growth medium (DMEM high glucose, 10% (v/v) fetal bovine serum, 1% (v/v) MEM NEAA, 10 mM HEPES, 2 mM L-glutamine, puromycin (10 μg/mL for Rat-1_PI3Kdelta and Rat-1_PI3Kalpha, 4 ug/mL for Rat-1_PI3beta), 1% (v/v) Pen/Strep) to 90% confluency at 37° C./5% CO2/90% humidity in a humidified CO2 incubator and were split twice a week.
# The following materials were used for p-AKT(S473) detection in Rat-1 cell lysates: Dulbecco's modified Eagle's medium (DMEM) high glucose (Gibco Invitrogen, Basel, Switzerland, Cat. No. 41965), Heat Inactivated Fetal Bovine Serum, Qualified (HI FBS; Gibco Invitrogen, Basel, Switzerland, Lot. No. 16140), MEM non essential amino acids (NEAA; Gibco Invitrogen, Basel, Switzerland, Cat. No. 11140), HEPES (Gibco Invitrogen, Basel, Switzerland, Cat. No. 15630), Penicillin/Streptomycin (Pen/Strep, 100×; Gibco Invitrogen, Basel, Switzerland, Cat. No. 15140-122), L-Glutamine (Gibco Invitrogen, Basel, Switzerland, Cat. No. 25030), Puromycin (Sigma Aldrich, Buchs, Switzerland, Cat. No. P9620), DMSO (MERCK, Dietikon, Switzerland, Cat. No. 8.02912.2500), H2O, MilliQ-H2O unless otherwise stated (MILLIPORE QGARDOOR1, Millipore, Zug, Switzerland), Bovine serum albumine (BSA; Sigma Aldrich, Buchs, Switzerland Cat. No. A8412), SureFire p-Akt 1/2 (Ser473) Assay Kit (PerkinElmer, Schwerzenbach, Switzerland, Cat. No. TGRAS50K).
# The p-Akt(S473) SureFire assay measures the phosphorylation of endogenous cellular Akt 1/2 at Ser473 in cell lysates. Using Rat-1 cells stably expressing myr-HA-tagged versions of the human PI3Kdelta, PI3Kalpha, or PI3Kbeta p110 catalytic subunit isoforms, the assay was developed as a two-plate protocol in a 384-well format.
# T1 sequence (O00329 whole entry): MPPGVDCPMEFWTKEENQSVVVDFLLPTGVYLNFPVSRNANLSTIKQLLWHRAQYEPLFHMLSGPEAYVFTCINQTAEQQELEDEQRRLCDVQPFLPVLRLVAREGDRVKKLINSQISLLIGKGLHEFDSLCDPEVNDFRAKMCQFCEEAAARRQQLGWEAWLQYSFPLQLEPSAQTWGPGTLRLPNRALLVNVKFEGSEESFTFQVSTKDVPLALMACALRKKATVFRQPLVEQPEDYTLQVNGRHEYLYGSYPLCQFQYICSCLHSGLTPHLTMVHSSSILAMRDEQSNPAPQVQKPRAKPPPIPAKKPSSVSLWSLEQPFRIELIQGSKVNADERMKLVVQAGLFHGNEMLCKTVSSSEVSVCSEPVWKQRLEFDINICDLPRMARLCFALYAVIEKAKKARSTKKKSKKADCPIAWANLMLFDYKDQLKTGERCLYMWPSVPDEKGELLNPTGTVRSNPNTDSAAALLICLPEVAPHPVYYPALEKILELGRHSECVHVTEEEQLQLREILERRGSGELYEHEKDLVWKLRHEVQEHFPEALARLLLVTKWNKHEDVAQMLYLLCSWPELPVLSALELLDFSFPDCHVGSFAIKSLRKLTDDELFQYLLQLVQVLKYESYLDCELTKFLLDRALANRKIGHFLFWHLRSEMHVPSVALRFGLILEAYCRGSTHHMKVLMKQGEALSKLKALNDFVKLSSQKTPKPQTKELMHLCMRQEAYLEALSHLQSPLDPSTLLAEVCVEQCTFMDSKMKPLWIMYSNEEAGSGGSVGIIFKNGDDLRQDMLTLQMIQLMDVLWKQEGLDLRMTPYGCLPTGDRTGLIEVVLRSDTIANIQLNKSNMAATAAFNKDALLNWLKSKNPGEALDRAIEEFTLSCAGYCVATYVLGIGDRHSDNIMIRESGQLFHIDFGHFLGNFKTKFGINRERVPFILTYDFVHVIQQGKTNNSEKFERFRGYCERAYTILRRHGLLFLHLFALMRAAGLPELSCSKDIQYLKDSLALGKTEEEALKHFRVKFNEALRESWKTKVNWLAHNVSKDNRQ
# T1 sequence (Q63787 whole entry partner): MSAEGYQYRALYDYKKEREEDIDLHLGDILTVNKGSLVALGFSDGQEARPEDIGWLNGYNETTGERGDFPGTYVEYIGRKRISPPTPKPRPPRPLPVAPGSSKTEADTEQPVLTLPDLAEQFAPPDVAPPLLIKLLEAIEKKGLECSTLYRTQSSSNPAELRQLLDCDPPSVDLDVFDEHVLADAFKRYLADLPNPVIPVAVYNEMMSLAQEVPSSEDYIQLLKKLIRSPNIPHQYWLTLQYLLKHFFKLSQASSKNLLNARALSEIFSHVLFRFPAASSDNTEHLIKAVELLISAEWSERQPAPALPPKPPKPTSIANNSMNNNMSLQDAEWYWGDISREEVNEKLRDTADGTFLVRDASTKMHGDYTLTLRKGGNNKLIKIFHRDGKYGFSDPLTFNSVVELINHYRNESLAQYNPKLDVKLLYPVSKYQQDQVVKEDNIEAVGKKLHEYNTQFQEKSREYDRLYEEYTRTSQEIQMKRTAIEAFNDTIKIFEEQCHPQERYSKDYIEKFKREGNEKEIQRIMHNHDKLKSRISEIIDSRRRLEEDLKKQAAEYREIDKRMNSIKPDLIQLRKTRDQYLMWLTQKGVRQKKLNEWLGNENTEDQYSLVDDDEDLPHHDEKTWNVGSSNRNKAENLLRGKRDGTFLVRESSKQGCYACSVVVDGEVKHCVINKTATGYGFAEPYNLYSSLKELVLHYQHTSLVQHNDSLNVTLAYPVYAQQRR
row,pIC50,Compound
1,7.96,"C[C@H]1C(CC(C)(C)O)OC(=O)N1c1cc(-c2cnc(N)nc2C(F)(F)F)nc(N2CCOCC2)n1 (mixture of isomers) [Example 26, (4S,5R)- and (4S,5S)-3-(2′-amino-2-morpholino-4′-(trifluoromethyl)-[4,5′-bipyrimidin]-6-yl)-5-(2-hydroxy-2-methylpropyl)-4-methyloxazolidin-2-one]"
2,7.14,"CC1(CO)COC(=O)N1c1cc(-c2cnc(N)nc2C(F)(F)F)nc(N2CCOCC2)n1 (racemic) [Example 3, 3-(2′-amino-2-morpholino-4′-(trifluoromethyl)-4,5′-bipyrimidin-6-yl)-4-(hydroxymethyl)-4-methyloxazolidin-2-one]"
3,7.57,"Nc1ncc(-c2cc(N3C(=O)O[C@@H]4[C@@H](O)CC[C@@H]43)nc(N3CCOCC3)n2)c(C(F)(F)F)n1 (racemic) [Example 22, (3aR*,6R*,6aR*)-3-(2′-Amino-2-morpholino-4′-(trifluoromethyl)-[4,5′-bipyrimidin]-6-yl)-6-hydroxyhexahydro-2H-cyclopenta[d]oxazol-2-one]"
4,7.57,"Nc1ncc(-c2cc(N3C(=O)OC4C(O)CCC43)nc(N3CCOCC3)n2)c(C(F)(F)F)n1 (single isomer, unassigned) [Example 22A]"
5,8.30,"Nc1ncc(-c2cc(N3C(=O)OC4C(O)CCC43)nc(N3CCOCC3)n2)c(C(F)(F)F)n1 (single isomer, unassigned) [Example 22B]"
6,8.15,"C[C@@H](O)C[C@H]1OC(=O)N(c2cc(-c3cnc(N)nc3C(F)(F)F)nc(N3CCOCC3)n2)[C@H]1C (single isomer, unassigned) [Example 24]"
7,7.89,"C[C@H](O)CC1OC(=O)N(c2cc(-c3cnc(N)nc3C(F)(F)F)nc(N3CCOCC3)n2)[C@H]1C (single isomer, unassigned) [Example 25]"
8,7.57,"C[C@H]1COC(=O)N1c1cc(-c2cnc(N)nc2C(F)(F)F)nc(N2CCOCC2)n1 [Example 1, (S)-3-(2′-Amino-2-morpholin-4-yl-4′-trifluoromethyl-[4,5′]bipyrimidinyl-6-yl)-4-methyl-oxazolidin-2-one]"
9,7.09,"CC1(C)OC(=O)N(c2cc(-c3cnc(N)nc3C(F)(F)F)nc(N3CCOCC3)n2)[C@H]1CO [Example 2, (S)-3-(2′-Amino-2-morpholin-4-yl-4′-trifluoromethyl-[4,5′]bipyrimidinyl-6-yl)-4-hydroxymethyl-5,5-dimethyl-oxazolidin-2-one]"
10,7.89,"Nc1ncc(-c2cc(N3C(=O)O[C@H]4CCCC[C@@H]43)nc(N3CCOCC3)n2)c(C(F)(F)F)n1 [Example 4, (3aS,7aS)-3-(2′-Amino-2-morpholin-4-yl-4′-trifluoromethyl-[4,5′]bipyrimidinyl-6-yl)-hexahydro-benzooxazol-2-one]"
11,7.64,"COC[C@H]1COC(=O)N1c1cc(-c2cnc(N)nc2C(F)(F)F)nc(N2CCOCC2)n1 [Example 5, (S)-3-(2′-Amino-2-morpholin-4-yl-4′-trifluoromethyl-[4,5′]bipyrimidinyl-6-yl)-4-methoxymethyl-oxazolidin-2-one]"
12,7.43,C[C@@H]1OC(=O)N(c2cc(-c3cnc(N)nc3C(F)(F)F)nc(N3CCOCC3)n2)[C@H]1CO [Example 6]
13,7.27,[2H]C1([2H])OC([2H])([2H])C([2H])([2H])N(c2nc(-c3cnc(N)nc3C(F)(F)F)cc(N3C(=O)O[C@H](C)[C@@H]3CO)n2)C1([2H])[2H] [Example 8]
14,7.11,"Nc1ncc(-c2cc(N3C(=O)OC[C@@H]3CCO)nc(N3CCOCC3)n2)c(C(F)(F)F)n1 [Example 9, (S)-3-(2′-Amino-2-morpholin-4-yl-4′-trifluoromethyl-[4,5′]bipyrimidinyl-6-yl)-4-(2-hydroxy-ethyl)-oxazolidin-2-one]"
15,7.28,"C[C@H]1OC(=O)N(c2cc(-c3cnc(N)nc3C(F)(F)F)nc(N3CCOC[C@@H]3C)n2)[C@H]1CO [Example 10, (4S,5R)-3-[2′-Amino-2-((S)-3-methyl-morpholin-4-yl)-4′-trifluoromethyl-[4,5′]bipyrimidinyl-6-yl]-4-hydroxymethyl-5-methyl-oxazolidin-2-one]"
16,6.86,"Nc1ncc(-c2cc(N3CCOC3=O)nc(N3CCOCC3)n2)c(C(F)(F)F)n1 [Example 11, 3-(2′-Amino-2-morpholin-4-yl-4′-trifluoromethyl-[4,5′]bipyrimidinyl-6-yl)-oxazolidin-2-one, reference compound]"
17,7.04,"C[C@H]1OC(=O)N(c2cc(-c3cnc(N)nc3C(F)(F)F)nc(N3CCOCC3)n2)[C@H]1COC=O [Example 12, Formic acid (4S,5R)-3-(2′-amino-2-morpholin-4-yl-4′-trifluoromethyl-[4,5′]bipyrimidinyl-6-yl)-5-methyl-2-oxo-oxazolidin-4-ylmethyl ester]"
18,7.38,"C[C@H]1COCCN1c1nc(-c2cnc(N)nc2C(F)(F)F)cc(N2C(=O)OC[C@@H]2C)n1 [Example 13, (S)-3-[2′-Amino-2-((S)-3-methyl-morpholin-4-yl)-4′-trifluoromethyl-[4,5′]bipyrimidinyl-6-yl]-4-methyl-oxazolidin-2-one]"
19,7.00,"Nc1ncc(-c2cc(N3C[C@@H](CO)OC3=O)nc(N3CCOCC3)n2)c(C(F)(F)F)n1 [Example 14, (S)-3-(2′-Amino-2-morpholin-4-yl-4′-trifluoromethyl-[4,5′]bipyrimidinyl-6-yl)-5-hydroxymethyl-oxazolidin-2-one]"
20,7.28,"C[C@H]1[C@H](CO)OC(=O)N1c1cc(-c2cnc(N)nc2C(F)(F)F)nc(N2CCOCC2)n1 [Example 15, (4S,5R)-3-(2′-Amino-2-morpholin-4-yl-4′-trifluoromethyl-[4,5′]bipyrimidinyl-6-yl)-5-hydroxymethyl-4-methyl-oxazolidin-2-one]"
21,7.06,"C[C@H]1CN(c2cc(-c3cnc(N)nc3C(F)(F)F)nc(N3CCOCC3)n2)C(=O)O1 [Example 16, (S)-3-(2′-Amino-2-morpholin-4-yl-4′-trifluoromethyl-[4,5′]bipyrimidinyl-6-yl)-5-methyl-oxazolidin-2-one]"
22,6.81,"[2H]C1([2H])OC([2H])([2H])C([2H])([2H])N(c2nc(-c3cnc(N)nc3C(F)(F)F)cc(N3C(=O)OC[C@@H]3C)n2)C1([2H])[2H] [Example 17, (S)-3-(2′-amino-2-D8-morpholino-4′-(trifluoromethyl)-[4,5′-bipyrimidin]-6-yl)-4-methyloxazolidin-2-one]"
23,7.55,"C[C@H]1OC(=O)N(c2cc(-c3cnc(N)nc3C(F)(F)F)nc(N3CCOCC3)n2)[C@H]1CO [Example 18, (4S,5R)-3-(2′-Amino-2-morpholin-4-yl-4′-trifluoromethyl-[4,5′]bipyrimidinyl-6-yl)-4-hydroxymethyl-5-methyl-oxazolidin-2-one]"
24,7.47,"C[C@H]1[C@@H](CO)OC(=O)N1c1cc(-c2cnc(N)nc2C(F)(F)F)nc(N2CCOCC2)n1 [Example 19, (4S,5S)-3-(2′-Amino-2-morpholin-4-yl-4′-trifluoromethyl-[4,5′]bipyrimidinyl-6-yl)-5-hydroxymethyl-4-methyl-oxazolidin-2-one]"
